{"source": "patent US8207211B2", "about": "“Photosensitizers for targeted photodynamic therapy” (The General Hospital Corporation, priority 2005, dated 2012)", "key": {"[1]": {"experiment": "Octanol-water distribution coefficient", "format": "physicochemical", "settings": "1-octanol/DI water, absorbance at 330 nm", "experimental": "Each compound was dissolved in a minimum amount of DMSO: CI1 (0.9 mg in 200 μl), CI2 (5.3 mg in 200 μl), CI3 (5.4 mg in 200 μl). Ten ml of DI water and 10 ml of 1-octanol were added in each compound and vigorously shaken for 2 min. and the vials of the compounds were settled down overnight. The phases were separated and UV-spectra of each phase were analyzed. Distribution coefficient of each compound was determined using absorbance of aqueous phases and organic phases at 330 nm."}, "[2]": {"experiment": "Solubility in DMSO stock solution", "format": "physicochemical", "settings": "lower stock concentration used than for the other fullerenes", "experimental": "(§1) Typically, derivatized fullerenes prepared as described above are dissolved in DMSO to provide stock solutions having final concentrations of about 5 mM. […] All stock solutions were stored in the dark at room temperature.\nSix fullerene derivatives (NI1-3 and CI1-3) were evaluated. […] Concentration of fullerene derivatives used in the experiments varied between 1 and 100 μM."}, "[3]": {"tested_on": "S. aureus", "experiment": "Photodynamic inactivation (PDI), CFU survival, white light (red light for TBO)", "format": "cell-based, Staphylococcus aureus", "experimental": "(§2) Staphylococcus aureus (ATCC #35556), Escherichia coli (ATCC #25922), and Pseudomonas aeruginosa (ATCC #BAA-47; PAO1) were cultured in brain-heart infusion (BHI) broth (Difco, BD Diagnosttic Systems, Sparks, Md.) at 37° C. in aerobic conditions in a shaker at 150 rpm. Candida albicans (ATCC #18804) is grown in YM broth (Difco). Exponential cultures obtained by reculturing stationary overnight precultures were used for experiments.\n(§3) E. coli, P. aeruginosa, and S. aureus are grown in fresh medium for approximately 1 hr to a density of about 10^8 cells/ml; the OD values at 650 nm are 0.6, 0.8, and 0.8, respectively. C. albicans is grown for approximately 4 hr to an approximate density of 10^8 cells/ml, corresponding to an OD of 6 at 650 nm (measured at 10-fold dilution). Cells were used for experiments in the mid-log growth phase.\nA noncoherent lamp with filtered liquid light guides, e.g., a LumaCare™ LC122 lamp (MBG Technologies, Inc., Newport Beach, Calif.) was used to provide illumination of PS. […] The lamp was adjusted to give a uniform spot of about 4 cm diameter with an irradiance of 200 mW/cm^2, as measured with a power meter, e.g., a model DMM 199 meter with 201 Standard head (Coherent, Santa Clara, Calif.). […]\nIllumination was carried out from above on microbial cell suspensions in wells of a 24-well plate. […] Survival fractions were calculated with reference to cells incubated in PBS alone. […]"}, "[4]": {"tested_on": "E. coli", "experiment": "Photodynamic inactivation (PDI), CFU survival, white light (red light for TBO)", "format": "cell-based, Escherichia coli", "settings": "10 μM; for change of E. coli killing in the presence of serum versus no serum: white light; for PDT activity against E. coli: white light up to 50 J/cm^2", "experimental": "as §2, §3\n(§4) A noncoherent lamp with filtered liquid light guides, e.g., a LumaCare™ LC122 lamp (MBG Technologies, Inc., Newport Beach, Calif.) was used to provide illumination of PS. More specifically, for illumination of fullerenes, a broad-band white light band pass filter (400-700 nm) was used, whereas for TBO, a band pass filter at 620-650 nm was used. The lamp was adjusted to give a uniform spot of about 4 cm diameter with an irradiance of 200 mW/cm^2, as measured with a power meter, e.g., a model DMM 199 meter with 201 Standard head (Coherent, Santa Clara, Calif.).\nas §1\n(§5) In some experiments, for example in studies described in Examples below, suspensions of S. aureus cells (10^8 per ml) were incubated with derivatized fullerenes such as NI-1-3 and CI1-3 at a concentration of 100 μM in PBS at room temperature for 10 min. In other experiments, the bacterial suspension was centrifuged (4000×g for 10 min) after incubation and resuspended in fresh PBS before illumination; the latter procedure was referred to herein as a “wash.” E. coli, P. aeruginosa, and C. albicans were used at concentrations of about 10^8 cells per ml.\n(§6) Illumination was carried out from above on microbial cell suspensions in wells of a 24-well plate. Aliquots were removed at times corresponding to the delivery of calculated fluences of light, and were serially diluted in PBS and streaked on square BHI or YM agar plates according to the method of Jett et al. (Jett, B. D., Hatter, K. L., Huycke, M. M., and Gilmore, M. S. (1997). Simplified agar plate method for quantifying viable bacteria. Biotechniques 23, 648-650). Survival fractions were calculated with reference to cells incubated in PBS alone. Values on killing curves at 0 J/cm^2 represent the dark toxicity of the fullerenes or other PS tested. Control cells were treated with light and no PS and also analyzed for viability."}, "[5]": {"tested_on": "P. aeruginosa", "experiment": "Photodynamic inactivation (PDI), CFU survival, white light (red light for TBO)", "format": "cell-based, Pseudomonas aeruginosa", "settings": "10 μM; for PDT activity against P. aeruginosa: white light up to 50 J/cm^2", "experimental": "as §2, §3, §4, §1, §5, §6"}, "[6]": {"tested_on": "C. albicans", "experiment": "Photodynamic inactivation (PDI), CFU survival, white light (red light for TBO)", "format": "cell-based, Candida albicans", "settings": "10 μM; for PDT activity against C. albicans: white light up to 50 J/cm^2", "experimental": "as §2, §3, §4, §1, §5, §6"}, "[7]": {"tested_on": "L929 murine fibroblast line", "experiment": "Mammalian cell toxicity, MTT viability assay after illumination", "format": "cell-based, mouse", "settings": "10 μM, 10 min; for toxicity to L929 mammalian cells at fluences used for PDI of pathogens: white light up to 50 J/cm^2", "from_the_text": "Experiments to test the effect of functionalized fullerenes on mammalian cells can be performed in a suitable mammalian cell line. One such cell line is the L929 murine fibroblast line (ATCC #CCL1), a spontaneously transformed immortalized cell line established from the normal subcutaneous areolar and adipose tissue of a male C3H/An mouse (Earle, W. R., Schilling, E. L., Stark, T. H., Straus, N. P., Brown, M. F., and Shelton, E. (1943). Production of malignancy in vitro. IV. The mouse fibroblast cultures and changes seen in the living cells. J. Natl. Cancer Inst. 4, 165-212). In a suitable assay, these cells were cultured in Dulbecco's modified Eagle's medium (Sigma) at 37° C. in a humidified atmosphere containing 5% CO2. The medium is preferably modified by using 4 mM L-glutamine (containing 1.5 g/l sodium bicarbonate and 4.5 g/l glucose), 10% fetal bovine serum (FBS), 100 U/ml penicillin, and […] streptomycin. Cells were plated in 96-well cell culture plates, at a density of about 300 cells/well, and are allowed to attach for 24 hr.\nFullerenes and other PS, e.g., TBO, were added at a concentration of about 10 μM in 200 μl complete medium per well. After 10 min, fresh medium is added, and the cultures were illuminated with white light (for fullerenes) or with red light (for TBO). At the completion of the illumination period, cells were returned to the incubator for 24 hr. Cell viability can be determined, for example, by using the MTT-microculture tetrazolium assay, a method of assessing cellular response to PDT (Merlin, J. L., Azzi, S., Lignon, D., Ramacci, C., Zeghari, N., and Guillemin, F. (1992). MTT assays allow quick and reliable measurement of the response of human tumour cells to photodynamic therapy. Eur. J. Cancer 28A, 1452-1458. This assay involves the reduction of a colorless substrate, i.e., 3-[4,5-Dimethylthiazol-2-yl]-diphenyltetrazolium bromide (Sigma, St. Louis, […].) to an insoluble dark-blue formazan product which is formed in proportion to the amount of succinate dehydrogenase activity in the mitochondria of living cells. After incubation with MTT for periods ranging from 4 to 8 hr, the medium was aspirated from each well, and […] DMSO is added. The absorbance at 570 nm was read by a microplate reader, e.g., a Spectra Max™ 340 PC (Molecular Devices, Sunnyvale, Calif.). The fraction of cells surviving was calculated by dividing the mean absorbances of formazan produced from PDT-treated cells by the mean absorbances from dark controls incubated with PS and kept at room temperature for periods of time equal to the irradiation times."}, "[8]": {"tested_on": "S. aureus", "experiment": "Photodynamic inactivation (PDI), CFU survival, white light (red light for TBO)", "format": "cell-based, Staphylococcus aureus", "settings": "for PDT activity against S. aureus: 10 min, white light up to 50 J/cm^2"}, "[9]": {"settings": "10 min incubation, up to 16 J/cm2 of red light"}, "[10]": {"settings": "same fluence as for the fullerenes, presence or absence of serum"}}}
{"smiles": "C[N+]1(C)CC2c3c4ccc5c6ccc7c8ccc9c%10ccc%11c(c%12c3c3c4c5c4c6c7c5c8c9c6c%10c%11c%12c7c3c4c5c67)C2C1", "note": "(stereo not drawn) [CI1]", "values": [{"measurement": "Kow (octanol-water partition constant)", "setting": "[1]", "value": 140.80}, {"measurement": "LogKow", "setting": "[1]", "value": 2.15}, {"measurement": "solubility in DMSO (stock solution)", "setting": "[2]", "value": "poorly soluble"}, {"measurement": "dark toxicity to S. aureus (killing)", "setting": "[3]; 100 μM, 10 min, 0 J/cm^2", "value": 99, "unit": "%"}, {"measurement": "PDI of S. aureus", "setting": "[3]; 100, 50, 25, 10 and 1 μM, with a wash, white light 4-8 J/cm2", "value": "fluence-dependent loss of viability"}, {"measurement": "change of E. coli killing in the presence of serum versus no serum", "setting": "[4]; 10 min, 10% FBS, with a wash", "value": "unchanged"}, {"measurement": "PDT activity against E. coli", "setting": "[4]; 10 min", "value": "effectively killed"}, {"measurement": "killing of E. coli", "setting": "[4]; with a wash, 8 J/cm^2 white light", "value": 3, "unit": "logs"}, {"measurement": "PDT activity against P. aeruginosa", "setting": "[5]; 10 min", "value": "effectively killed"}, {"measurement": "killing of P. aeruginosa", "setting": "[5]; 10 min, with a wash, white light up to 16 J/cm^2", "value": 2, "unit": "logs"}, {"measurement": "PDT activity against C. albicans", "setting": "[6]; 10 min", "value": "effectively killed"}, {"measurement": "toxicity to L929 mammalian cells at fluences used for PDI of pathogens", "setting": "[7]", "value": "not killed"}, {"measurement": "PDT activity against S. aureus", "setting": "[8]; 1 μM", "value": "effectively killed"}, {"measurement": "dark toxicity to S. aureus", "setting": "[8]; 10 and 1 μM, with a wash", "value": "nonexistent"}]}
{"smiles": "Cc1cc2nc3ccc(N(C)C)cc3[s+]c2cc1N.[Cl-]", "note": "[TBO, toluidine blue O, reference compound]", "values": [{"measurement": "PDI of E. coli in the presence of serum", "setting": "[4]; 10 min, 10% FBS, with a wash, red light", "value": "almost ineffective"}, {"measurement": "killing of E. coli", "setting": "[4]; [9]", "value": "≤ 90", "unit": "%"}, {"measurement": "killing of P. aeruginosa", "setting": "[5]; [9]", "value": "≤ 90", "unit": "%"}, {"measurement": "killing of P. aeruginosa", "setting": "[5]; [10]", "value": "less than 1 log"}, {"measurement": "killing of C. albicans", "setting": "[6]; [9]", "value": "≤ 90", "unit": "%"}, {"measurement": "killing of C. albicans", "setting": "[6]; [10]", "value": "less than 1 log"}, {"measurement": "dark toxicity toward L929 cells (killing)", "setting": "[7]; 10% FBS, with a wash", "value": "little dark toxicity"}, {"measurement": "fluence at which the limit of the viability assay was reached (L929)", "setting": "[7]; 10% FBS, with a wash, red light", "value": 80, "unit": "J/cm^2"}, {"measurement": "additional phototoxicity toward L929 cells", "setting": "[7]; 10% FBS, with a wash, white or red light up to 120 J/cm^2", "value": "pronounced light-dependent toxicity"}, {"measurement": "killing of S. aureus", "setting": "[8]; 1 μM, 10 min incubation, up to 16 J/cm2 of red light", "value": "≤ 90", "unit": "%"}, {"measurement": "killing of S. aureus", "setting": "[8]; 1 μM, same fluence as for the fullerenes, presence or absence of serum", "value": "less than 1 log"}]}
{"smiles": "C[N+]1(C)Cc2c(c3c4ccc5c6c7c(c8c9ccc%10c%11c%12c%13c(c2c2c3c3c4c5c4c6c8c5c9c%10c%12c6c(c%132)c3c4c56)C2C[N+](C)(C)CC%112)C[N+](C)(C)C7)C1", "note": "(stereo not drawn) [CI3]", "values": [{"measurement": "Kow (octanol-water partition constant)", "setting": "[1]", "value": 0.37}, {"measurement": "LogKow", "setting": "[1]", "value": "−0.43"}, {"measurement": "change of E. coli killing in the presence of serum versus no serum", "setting": "[4]; 10 min, 10% FBS, with a wash", "value": "about 1 log"}, {"measurement": "PDT activity against E. coli", "setting": "[4]; 10 min", "value": "effectively killed"}, {"measurement": "killing of E. coli", "setting": "[4]; with a wash, 2 J/cm^2 white light", "value": 6, "unit": "logs"}, {"measurement": "PDT activity against P. aeruginosa", "setting": "[5]; 10 min", "value": "effectively killed"}, {"measurement": "PDT activity against C. albicans", "setting": "[6]; 10 min", "value": "effectively killed"}, {"measurement": "relative effectiveness in killing C. albicans", "setting": "[6]; 10 min, with a wash, white light", "value": "slightly more effective than CI2"}, {"measurement": "toxicity to L929 mammalian cells at fluences used for PDI of pathogens", "setting": "[7]", "value": "not killed"}, {"measurement": "PDT activity against S. aureus", "setting": "[8]; 1 μM", "value": "effectively killed"}, {"measurement": "light sufficient to kill 4-5 logs of S. aureus", "setting": "[8]; 1 μM, with a wash, white light", "value": 1, "unit": "J/cm^2"}]}
